Experimental data taken from ChEMBL document CHEMBL2029277, “Discovery of XL413, a potent and selective CDC7 inhibitor” (Bioorg Med Chem Lett, 2012).

Tests used:
[1] = Plasma concentration in mouse at 100 mg/kg, po measured after 4 hrs; format: ADME, organism-based; parameters: dose 100 mg/kg, route oral
[2] = Plasma concentration in mouse at 100 mg/kg, po measured after 1 hr; format: ADME, organism-based; parameters: dose 100 mg/kg, route oral
[3] = target: T1, Cell division cycle 7-related protein kinase (Homo sapiens, UniProt O00311); test: Inhibition of N-terminus Myc-tagged human CDC7 expressed in Escherichia coli by chemiluminescence assay in presence of ATP
T1 sequence (O00311 whole entry): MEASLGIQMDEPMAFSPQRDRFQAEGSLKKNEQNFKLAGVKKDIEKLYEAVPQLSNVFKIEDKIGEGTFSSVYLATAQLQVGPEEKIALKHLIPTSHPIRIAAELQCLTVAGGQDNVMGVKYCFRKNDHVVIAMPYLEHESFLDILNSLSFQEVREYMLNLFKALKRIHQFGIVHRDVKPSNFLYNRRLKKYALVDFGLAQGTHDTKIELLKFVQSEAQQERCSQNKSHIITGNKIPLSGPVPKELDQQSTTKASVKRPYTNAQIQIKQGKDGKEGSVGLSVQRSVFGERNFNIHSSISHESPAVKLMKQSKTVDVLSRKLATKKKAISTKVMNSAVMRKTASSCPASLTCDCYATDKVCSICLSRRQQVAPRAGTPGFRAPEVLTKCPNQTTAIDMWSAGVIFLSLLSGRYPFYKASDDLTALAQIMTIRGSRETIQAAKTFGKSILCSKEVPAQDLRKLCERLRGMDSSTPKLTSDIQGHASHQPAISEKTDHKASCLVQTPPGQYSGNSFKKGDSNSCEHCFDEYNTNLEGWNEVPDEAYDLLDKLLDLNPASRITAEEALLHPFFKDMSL

[4] = target: Serine/threonine-protein kinase pim-1 (Homo sapiens, UniProt P11309); test: Inhibition of N-terminus His-tagged human PIM1 expressed in Escherichia coli using AKRRRLSA as substrate after 1 to 2 hrs by chemiluminescence assay
Sequence of Serine/threonine-protein kinase pim-1 (P11309 whole entry): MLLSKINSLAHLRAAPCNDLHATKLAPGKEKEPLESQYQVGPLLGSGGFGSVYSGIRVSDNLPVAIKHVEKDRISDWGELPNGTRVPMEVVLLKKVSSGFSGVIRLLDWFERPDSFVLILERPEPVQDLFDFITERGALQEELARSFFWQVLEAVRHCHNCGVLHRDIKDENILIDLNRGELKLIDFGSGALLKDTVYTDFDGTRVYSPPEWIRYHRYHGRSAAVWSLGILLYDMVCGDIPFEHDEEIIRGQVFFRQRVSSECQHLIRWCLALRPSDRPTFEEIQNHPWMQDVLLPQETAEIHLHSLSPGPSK

[5] = target: Casein kinase II alpha/beta (Homo sapiens, UniProt P68400); test: Inhibition of human tertrameric CK2alphabeta holoenzyme using casein as substrate after 1 to 2 hrs by chemiluminescence assay in presence of 2 uM ATP; format: protein-complex assay
Sequence of Casein kinase II alpha/beta (P67870 whole entry): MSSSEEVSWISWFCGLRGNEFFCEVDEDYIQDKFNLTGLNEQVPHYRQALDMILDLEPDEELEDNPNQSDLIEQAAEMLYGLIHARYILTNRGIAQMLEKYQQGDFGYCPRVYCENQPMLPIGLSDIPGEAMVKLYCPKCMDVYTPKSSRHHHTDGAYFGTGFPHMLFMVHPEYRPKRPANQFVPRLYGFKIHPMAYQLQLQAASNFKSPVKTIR
Sequence of Casein kinase II alpha/beta (P68400 whole entry): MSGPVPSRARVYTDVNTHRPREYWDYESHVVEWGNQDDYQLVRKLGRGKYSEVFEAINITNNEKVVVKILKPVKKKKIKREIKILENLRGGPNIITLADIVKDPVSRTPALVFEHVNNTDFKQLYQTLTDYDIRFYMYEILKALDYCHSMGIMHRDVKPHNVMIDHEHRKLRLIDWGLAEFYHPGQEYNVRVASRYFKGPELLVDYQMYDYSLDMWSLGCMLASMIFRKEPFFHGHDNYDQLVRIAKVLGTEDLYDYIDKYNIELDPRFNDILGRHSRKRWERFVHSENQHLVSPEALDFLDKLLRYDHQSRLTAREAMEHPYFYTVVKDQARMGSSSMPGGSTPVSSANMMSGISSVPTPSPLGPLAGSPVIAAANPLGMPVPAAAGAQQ

[6] = target: T1, Cell division cycle 7-related protein kinase; test: Inhibition of CDC7 in human MDA-MB-231T cells assessed as inhibition of MCM2 phosphorylation at Ser53 after 4 hrs; format: cell-based

| Compound | concentration at 4 h [1] | concentration at 1 h [2] | IC50 [3] | IC50 [4] | IC50 [5] | IC50 [6] |
| --- | --- | --- | --- | --- | --- | --- |
| Cc1cc(-c2cc(-c3ccccc3)nc(=O)[nH]2)ccc1O | 0.31 µM | 0.82 µM |  |  |  |  |
| CC(N)c1nc2c(oc3ccc(Br)cc32)c(=O)[nH]1 (racemic) |  |  | 7.9 nM | 72 nM | 757 nM | 874 nM |
| CO[C@H]1CCN(Cc2nc3c(oc4ccc(Br)cc43)c(=O)[nH]2)C1 |  |  | 11 nM | 77 nM | 512 nM | 362 nM |
| O=C(O)C1CCN(Cc2nc3c(oc4ccc(Br)cc43)c(=O)[nH]2)C1 (racemic) |  |  | 13 nM | 142 nM | 49 nM | > 40000 nM |
| O=c1[nH]c([C@@H]2C[C@@H](F)CN2)nc2c1oc1ccc(Br)cc12 | 46 µM | 82 µM | 3.7 nM | 46 nM | 238 nM | 82 nM |
| COc1ccc2oc3c(=O)[nH]c([C@@H]4C[C@@H](F)CN4)nc3c2c1 |  |  | 3.9 nM | 102 nM | 733 nM | 292 nM |
| O=c1[nH]c(C2CNC2)nc2c1oc1ccc(Br)cc12 |  |  | 7.7 nM | 18 nM | 43 nM | 2540 nM |
| O=c1[nH]c(C2CCCNC2)nc2c1oc1ccc(Br)cc12 (racemic) |  |  | 15 nM | 39 nM | 175 nM | 2360 nM |
| O=c1[nH]c(C2CCNCC2)nc2c1oc1ccc(Br)cc12 |  |  | 6.2 nM | 22 nM | 50 nM | 1430 nM |
| O=c1[nH]c(CN2CC[C@H](O)C2)nc2c1oc1ccc(Br)cc12 | 49 µM | 101 µM |  |  |  |  |
| O=c1[nH]c(CN2CC[C@H](O)C2)nc2c1oc1ccc(Cl)cc12 |  |  | 2200 nM |  |  |  |
| O=c1[nH]c(CN2CC[C@H](O)C2)nc2c1oc1cc(O)c(Br)cc12 | 0.15 µM | 1.4 µM | 1000 nM |  |  |  |
